Experimental data published in patent US20090010976A1, “Cosmetic or dermopharmaceutical compositions containing kombucha” (SEDERMA, priority 2002, published 2009).

Tested on: serum albumin
Assay: Anti-glycation effect: serum albumin incubated with fructose, fluorescent 'AGE' (FFI) formation
Assay type: biochemical
Conditions: one week
Protocol: Principle: The in vitro model consists in serum albumin incubated with fructose at […]. Glycation is monitored through the formation of fluorescent compounds, generally pentosidines or FFI (furoyl-furanyl-imidazoles.
Protocol: Non-enzymatic glycation between serum albumin and fructose is a slow spontaneous reaction that is accelerated by heat.
In our test, serum albumin (at 2%) and fructose (at 100 mM) were incubated in phosphate buffer medium pH 7.4 at 50° C. for one week. […] The reference (Control) glycation value after one week is determined on the serum albumin and fructose incubation medium. The positive control for glycation inhibition is obtained by incubation in the presence of 0.03% aminoguanidine and the test incubations were conducted in the presence of kombucha at various concentrations.
Results: For each fluorescence value determined, the percentage change on the control is calculated. The results shown in the following table are mean values for n=4 replicates.

N=C(N)NN [aminoguanidine]
% 'AGE' decrease (inhibition of 'AGE' production, FFI compounds) (aminoguanidine 0.03%, serum albumin 2% + fructose 100 mM, pH 7.4, 50° C., mean of n=4): 89 ± 5% | Inhibition of glycation, result in words (serum albumin + fructose, 50° C.): excellent inhibition of glycation
